Experimental data reported in patent US20250011876A1, “EXTRACELLULAR RNA SIGNATURES OF MUTANT KRAS(G12C) CANCERS” (The Regents of the University of California, priority 2021, published 2025).

Key:
[1] = system: KRAS and phosphorylated ERK in NCI-H358 cells; conditions: cited from earlier work
H358 3D spheroids = experiment: H358 spheroid size/area; type: cell-based; conditions: 0.1 μM AMG 510
[2] = system: EVs secreted by H358 cells; experiment: Nanoparticle Tracking Analysis of EV size, ExoTIC isolation; type: cell-based; conditions: ExoTIC-isolated EVs, H358, AMG 510 treatment
Text: To characterize exRNA profiles, EVs were isolated using two orthogonal approaches: affinity column extraction (ExoRNeasy) and size-based filtration (Exosome Total Isolation Chip: ExoTIC). Each EV isolation method captured distinct EV populations as determined by Nanoparticle Tracking Analysis (NTA) (FIGS. 5A and 5B) 18.19. The ExoTIC platform captured a low yield of EVs that fell within a size range matching that of exosomes (FIG. 5A).
The exRNA landscape varies based on EV subpopulations isolated by different approaches. We sought to investigate two orthogonal approaches to EV isolation, which yielded distinct EV populations with variable exRNA content. This highlights the importance of upstream EV isolation procedures before the exRNA sequencing pipeline. […] The significant shift in the maxima of the EV size distribution corresponding to AMG 510 treatment was accompanied by local maxima around particles of even smaller dimensions. Further EV size-fractionated exRNA sequencing will be necessary to determine the contribution of the different EV subpopulations to our exRNA data.
RNA Isolation & Purification. Total bulk RNA was isolated from H358 cells using Quick-RNA Mini-Prep kit (Zymogen). All RNA was quantified via NanoDrop-8000 Spectrophotometer. […] Extracted exosomal RNA were quantified via Qubit RNA HS assay kit (Thermo). […]

Row | SMILES | time at which abundance of KRAS and pERK begin to recover [1] [hours] | decrease of 3D spheroid size with respect to control (H358 3D spheroids) [%] | EV size profile after treatment [2]
1 | C=CC(=O)N1CCN(c2ncnc3c(F)c(-c4c(O)cccc4F)c(Cl)cc23)CC1 [ARS1620] | 24 | – | –
2 | C=CC(=O)N1CCN(c2nc(=O)n(-c3c(C)ccnc3C(C)C)c3nc(-c4c(O)cccc4F)c(F)cc23)[C@@H](C)C1 [AMG 510, Sotorasib] | – | 20 | around 150 nm
